Reference: the supplement of paper PMC10307832

Assays:
Test in all cases: relative viability (nuclei count vs DMSO), 5 days (fraction); higher = more cells survive
Irinotecan + Vorinostat = compound: CCc1c2c(nc3ccc(OC(=O)N4CCC(N5CCCCC5)CC4)cc13)-c1cc3c(c(=O)n1C2)COC(=O)[C@]3(O)CC [Irinotecan] + O=C(CCCCCCC(=O)Nc1ccccc1)NO [Vorinostat] (partner 1 µM)
Outline: (§1)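 Relative viability was taken as the ratio of nuclei in treated wells to nuclei in vehicle wells. Lung cancer cell lines in 1536-well plates received compounds by pin tool one day after seeding, either one drug alone or a fixed anchor-drug dose plus five library-drug doses (not always all listed) in √10 steps. Nuclei were counted on 4× images after 5 days of treatment, and values are medians of duplicate plates.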

RU-SKI 43 + Vorinostat = compound: CC[C@@H](C)CNCC(=O)N1CCC2=C([C@@H]1COC3=CC=CC(=C3)C)C=CS2 [RU-SKI 43] + O=C(CCCCCCC(=O)Nc1ccccc1)NO [Vorinostat] (partner 1 µM)
Outline: as §1

RU-SKI 43 + Navitoclax = compound: CC[C@@H](C)CNCC(=O)N1CCC2=C([C@@H]1COC3=CC=CC(=C3)C)C=CS2 [RU-SKI 43] + CC1(C)CCC(c2ccc(Cl)cc2)=C(CN2CCN(c3ccc(C(=O)NS(=O)(=O)c4ccc(N[C@H](CCN5CCOCC5)CSc5ccccc5)c(S(=O)(=O)C(F)(F)F)c4)cc3)CC2)C1 [Navitoclax] (partner 0.5 µM)
Outline: as §1

Cell Line | relative viability (Irinotecan + Vorinostat; first compound 0.6325 µM) | relative viability (Irinotecan + Vorinostat; first compound 2 µM) | relative viability (Irinotecan + Vorinostat; first compound 6.325 µM) | relative viability (Irinotecan + Vorinostat; first compound 20 µM) | relative viability (RU-SKI 43 + Vorinostat; first compound 0.1 µM) | relative viability (RU-SKI 43 + Vorinostat; first compound 0.3162 µM) | relative viability (RU-SKI 43 + Vorinostat; first compound 1 µM) | relative viability (RU-SKI 43 + Vorinostat; first compound 3.162 µM) | relative viability (RU-SKI 43 + Vorinostat; first compound 10 µM) | relative viability (RU-SKI 43 + Navitoclax; first compound 0.1 µM) | relative viability (RU-SKI 43 + Navitoclax; first compound 0.3162 µM) | relative viability (RU-SKI 43 + Navitoclax; first compound 1 µM) | relative viability (RU-SKI 43 + Navitoclax; first compound 3.162 µM) | relative viability (RU-SKI 43 + Navitoclax; first compound 10 µM)
LK-2 | 0.363 | 0.264 | 0.256 | 0.242 | 0.294 | 0.265 | 0.363 | 0.301 | 0.224 | 0.962 | 0.883 | 0.93 | 1.07 | 0.914
LOU-NH91 | 0.837 | 0.875 | 0.315 | 0.147 | 1.01 | 0.871 | 1.03 | 0.979 | 0.902 | 0.679 | 0.746 | 0.741 | 0.714 | 0.683
LU99A | 0.305 | 0.169 | 0.124 | 0.127 | 0.476 | 0.558 | 0.479 | 0.447 | 0.359 | 0.779 | 0.793 | 0.87 | 0.885 | 0.835
LXF-289 | 0.724 | 0.688 | 0.41 | 0.195 | 0.725 | 0.784 | 0.796 | 0.634 | 0.84 | 0.982 | 0.973 | 1.03 | 0.992 | 0.91
NCI-H23 | 0.467 | 0.451 | 0.234 | 0.199 | 0.473 | 0.602 | 0.571 | 0.587 | 0.48 | 0.615 | 0.9 | 0.99 | 0.998 | 0.687
NCI-H322M | 0.734 | 0.886 | 0.732 | 0.32 | 0.83 | 0.925 | 0.911 | 0.998 | 0.782 | 1.15 | 1.4 | 1.23 | 1.39 | 1.15
NCI-H358 | 0.455 | 0.246 | 0.167 | 0.135 | 0.642 | 0.929 | 0.708 | 0.793 | 0.614 |  |  |  |  | 
NCI-H441 | 0.443 | 0.305 | 0.233 | 0.197 | 0.752 | 0.97 | 0.97 | 0.741 | 0.849 | 0.677 | 0.498 | 0.616 | 0.611 | 0.542
NCI-H460 | 0.193 | 0.218 | 0.0779 | 0.0695 | 0.81 | 1.3 | 0.787 | 0.75 | 0.565 | 1.15 | 1.23 | 1.34 | 1.44 | 1.11
NCI-H520 | 0.442 | 0.394 | 0.278 | 0.162 | 0.77 | 0.745 | 0.788 | 0.704 | 0.646 | 1.08 | 1.42 | 1.28 | 1.08 | 1.03
NCI-H522 | 0.734 | 0.727 | 0.59 | 0.65 | 0.88 | 0.803 | 1.01 | 0.941 | 0.932 |  |  |  |  | 
NCI-H596 | 0.587 | 0.639 | 0.728 | 0.737 | 0.853 | 0.534 | 0.669 | 0.589 | 0.501 | 0.896 | 0.833 | 0.994 | 1.06 | 1.01
NCI-H647 | 0.679 | 0.398 | 0.139 | 0.0969 | 0.543 | 0.948 | 0.573 | 0.731 | 0.527 | 1.12 | 1.29 | 1.26 | 1.23 | 1.15
NCI-H650 | 0.329 | 0.303 | 0.134 | 0.203 | 0.497 | 0.369 |  | 0.455 | 0.459 |  |  |  |  | 
NCI-H661 | 0.688 | 0.49 | 0.344 | 0.252 | 0.752 | 0.984 | 0.815 | 0.777 | 0.736 |  |  |  |  | 
NCI-H727 | 1.03 | 0.731 | 0.616 | 0.641 |  | 1.13 | 1.13 | 1.08 | 1.23 | 0.305 | 0.355 | 0.397 | 0.35 | 0.358
NCI-H838 | 0.776 | 0.703 | 0.378 | 0.301 | 0.745 | 0.842 | 0.733 | 0.744 | 0.633 | 1.17 | 1.31 | 1.27 | 1.22 | 1.1
NCI-H1299 |  |  |  |  |  |  |  |  |  | 1.04 | 1.09 | 1.07 | 1.01 | 1.03
NCI-H1355 |  | 0.578 | 0.36 | 0.26 | 0.725 | 0.704 | 0.645 | 0.701 | 0.615 | 0.936 | 0.996 | 0.921 | 0.979 | 0.997
NCI-H1395 |  | 0.714 | 0.522 | 0.268 | 0.844 | 0.602 | 1.07 | 0.611 | 0.91 | 1.15 | 1.15 | 1.32 | 1.14 | 1.02
NCI-H1437 | 0.537 | 0.54 | 0.407 | 0.28 | 0.839 | 0.958 | 0.84 | 0.798 | 0.671 | 1.08 | 1.33 | 1.13 | 1.09 | 0.998
NCI-H1648 | 0.379 | 0.423 | 0.355 | 0.279 | 0.416 | 0.572 | 0.563 | 0.51 | 0.754 |  |  |  |  | 
NCI-H1650 | 0.518 | 0.349 | 0.351 | 0.162 | 0.55 | 0.674 | 0.523 | 0.583 | 0.589 | 1.17 | 1.38 | 1.41 | 1.06 | 0.813
NCI-H1651 | 0.362 | 0.533 | 0.364 | 0.158 | 0.617 | 0.573 | 0.676 | 0.559 | 0.548 | 1.05 | 1.24 | 1.14 | 1.01 | 1.01
NCI-H1703 |  |  |  |  |  |  |  |  |  | 1.2 | 1.08 | 0.987 | 1.16 | 0.535
NCI-H1792 |  |  |  |  |  |  |  |  |  | 0.65 | 0.908 | 0.968 | 0.612 | 0.685
NCI-H2342 | 0.955 | 0.911 | 0.836 | 0.356 | 0.724 |  | 0.718 | 0.884 | 0.716 |  |  |  |  | 
SW 900 |  | 0.564 | 0.333 | 0.373 | 0.36 | 0.584 | 0.782 | 0.621 | 0.221 |  |  |  |  | 
